The text below walks through data of PMC12683216, “Using High‐Throughput Screening to Identify Crosslinking Peptides That Control Cell‐Mediated Matrix Degradation” (Advanced Healthcare Materials, 2025).

Each structure is given as a SMILES string. Like-named read-outs stand apart in the source and are kept apart here. Where a SMILES comes first, the peptide text is derived from it. [ ]: non-standard residue; d: D form. βAla = NCCC(=O)O

The nature of data set [1]: Soluble peptide degradation, Media condition (cell-conditioned media, LC-MS). It counts as in vitro ADME, human. The method in brief: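 Pooled peptide library added to medium conditioned by hUVECs or hMSCs with cells removed. Fraction remaining after 24 h measured by LC-MS (positive-ion ESI). Value is peptide peak area relative to 50 µM non-degradable βFβA6 internal standard.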

In data set [2] the test system is hUVECs. The data set is described as follows: Soluble peptide degradation, Cells condition (LC-MS). It is filed as in vitro ADME, human. The settings on record: 24 h, LC-MS; for Fraction of peptide remaining after 24 hours: hUVEC Cells: ratio to βFβA6. The method in brief:
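Pooled synthetic TAILS-derived peptides added to hUVEC or hMSC cultures (Cells) or cell-free conditioned media (Media); MMP-14 inhibitor NSC 405 020 at 10 µM final. Samples taken at 0 and 24 h, acidified, analysed by LC-MS; peak areas normalised to 50 µM βFβA6 internal standard, 24 h/0 h gives fraction remaining.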

In data set [3] the test system is T1, MMP-14.
T1 construct: purchased antibodies.com
Kind of data set: Peptide degradation with added exogenous recombinant MMP-14 (LC-MS). It counts as in vitro ADME. The settings on record: human. How it is done:
To verify that MMP‐14 can degrade the KLVAD‐LM and PanMMP peptides, recombinant MMP‐14 was added to the different peptides, both in PBS and in the Cell and Media culture conditions (Figure 7 ). Peptides were incubated under three conditions: in fresh cell culture media (“Blank”), in media with cells present (“Cells”), and in cell‐conditioned media (“Media”). This was done for both hMSCs and hUVECs, and was also done with and without the addition of exogenous MMP.
The extent of peptide degradation was quantified for samples both with and without the addition of exogenous MMP‐14. […] Error bars indicate ± standard deviation, N = 3 with technical triplicates.
hUVECs (75000 per well) or hMSCs (36000 per well) were seeded into a 48 well plate, and 500 µL media was added to the wells. […] The peptide libraries were dissolved at a stock solution of 10 mM total peptide content. For libraries containing 38 peptides, 95 µL of the stock solution was added to each well; for libraries with 19 peptides, 47.5 µL was added to each well, and media was taken at 0 and 24 h. Add 4 µL of acetic acid to all collected media in the LC‐MS plates and store them in a −80 °C freezer to prevent further proteolytic degradation. From each sample, 10 µL of crude solution was introduced by the LC‐MS through a Thermo Scientific Vanquish LC System (Thermo Fisher Scientific), which outputted to a Thermo Scientific LTQ XL Linear Ion Trap Mass Spectrometer (Thermo Fisher Scientific). The sampled mixture was trapped on a column (ProntoSIL C18 AQ, 120 Å, 3 µm, 2.0 x 50 mm HPLC Column, PN 0502F184PS030, MAC‐MOD Analytical Inc.). The samples were loaded onto the column with a solvent containing acetonitrile/water, 5:95 (v/v) containing 1% acetic acid at a flow rate of 300 µL min^−1 and held for 1 min. The sample was then eluted from the column with a linear gradient of 5–40% Solvent B (1% acetic acid in acetonitrile) at the same flow rate for 5 min. This was followed by a 1 min ramp up to 100% Solvent B, where it was re‐equilibrated with Solvent A (1% acetic acid) to 5% solvent B over the course of 1 min and held there for 2 min. The column temperature was kept at a constant 29 °C, and the mass spectrometer was operated in positive ion mode. Using a Heated ESI, the Source Voltage was set to 4.1 kV, and the capillary temperature was 350 °C. For non‐library degradation studies, 2.5 µL of 10 mM peptide stock solution for each peptide was added.
To assess the activity of the conditioned media, the media were divided into two equal portions. One portion was used for a standard degradation study, while the other was cultured for an additional 24 h before the PanMMP and KLVADLMASAE were added. After 24 h of incubation, the media were collected for further analysis. To assess the impact of recombinant MMP‐14 on PanMMP and KLVADLMASAE, recombinant MMP‐14 (antibodies.com) was dissolved in the media at a concentration of 0.5 nM. The remaining steps followed the standard degradation study protocol.
For all degradation studies using soluble peptides, a non‐proteolytically degradable NH2‐βFβAβAβAβAβAβA‐amide (βFβA6) peptide, where βF is β‐phenylalanine and βA is β‐alanine, was added at a 50 µM concentration and used as an internal standard. Peptide degradation ratios were measured by LC‐MS and analyzed by Xcalibur. The relative concentrations of the peptide were calculated by the ratio of the peak area of the peptide and the peak area of βFβA6.

The mark [4] stands for this setting: Figure 3C, individually synthesized soluble peptide, 50 µM, hMSC-conditioned media without cells, 24 h, LC-MS, ratio to βFβA6, N = 6.
Where [5] appears, read: human, hMSC-conditioned media without cells (Media condition), Figure 3B heatmap, split-and-pool libraries KLVADX1X2ASAE in hMSC-conditioned media without cells, 24 h, LC-MS, ratio to βFβA6, N = 2, read-out: Fraction of peptide remaining after 24 hours: hMSC Media.
Setting [6] is: human, Figure 2B heatmap, pooled TAILS-derived soluble peptides in 24 h hMSC-conditioned media without cells, 24 h, LC-MS, ratio to βFβA6 internal standard, 24 h / 0 h, N = 5, read-out: Fraction of peptide remaining at 24 hours: hMSC Media.

One may read the amount remaining as what is left of the initial amount, in per cent.

As for `CC(=O)NCCC(=O)N[C@@H](CCCCN)C(=O)N[C@@H](CC(C)C)C(=O)N[C@H](C(=O)N[C@@H](C)C(=O)N[C@@H](CC(=O)O)C(=O)N[C@@H](CC(N)=O)C(=O)N[C@@H](Cc1ccc(O)cc1)C(=O)N[C@@H](C)C(=O)N[C@@H](CO)C(=O)N[C@@H](C)C(=O)N[C@@H](CCC(=O)O)C(=O)NCCC(N)=O)C(C)C` [KLVAD-NY] (Ac-[βAla]KLVADNYASAE[βAla]-NH2), the “Fraction of peptide remaining after 24 hours: hMSC Media” value in data set [1] (setting [4]) is 0.92. Moreover, the amount remaining at 24 h is 84% in data set [1] (setting [5]) and 97% in data set [1] (setting [6]). The compound further displayed a metabolised at 24 h in data set [1] (human, Figure 2B screen, hMSC-conditioned media, 24 h, LC-MS) of under 3%. Besides, the “Fraction of peptide remaining after 24 hours: hUVEC Cells” value in data set [2] (Figure 3B heatmap, split-and-pool libraries KLVADX1X2ASAE in media on hUVECs, N = 2) stood at 0.91.
Consider `CSCC[C@H](NC(=O)[C@H](CC(C)C)NC(=O)[C@H](CC(=O)O)NC(=O)[C@H](C)NC(=O)[C@@H](NC(=O)[C@H](CC(C)C)NC(=O)[C@H](CCCCN)NC(=O)CCNC(C)=O)C(C)C)C(=O)N[C@@H](C)C(=O)N[C@@H](CO)C(=O)N[C@@H](C)C(=O)N[C@@H](CCC(=O)O)C(=O)NCCC(N)=O` [KLVAD-LM] (Ac-[βAla]KLVADLMASAE[βAla]-NH2), for which the “degraded across all Media conditions” value in data set [1] is on record as “less than 10%”. In addition, the fraction remaining at 24 h, 50 µM in data set [1] (human, cells or culture medium) was 97%; in data set [3] (cells or culture medium, peptide remaining in hMSC conditioned media with added MMP‐14) it was 76%; in data set [3] (cells or culture medium, peptide remaining in hUVEC conditioned media with added MMP‐14), 69%.
On to `CC[C@H](C)[C@H](NC(=O)CNC(=O)[C@H](CCC(N)=O)NC(=O)[C@@H]1CCCN1C(=O)CNC(=O)CCNC(C)=O)C(=O)N[C@@H](Cc1c[nH]c2ccccc12)C(=O)NCC(=O)N[C@@H](CCC(N)=O)C(=O)NCCC(N)=O` [PanMMP, reference compound] (Ac-[βAla]GPQGIWGQ[βAla]-NH2), for which the “peptide remaining, Media condition, hMSCs” value in data set [1] (Figure 3C, 50 µM soluble peptide, 24 h, LC-MS, N = 6) is 85%. Further, the “Fraction of peptide remaining after 24 hours: hMSC Media” value in data set [1] (setting [4]) was 0.85. Further, the amount remaining at 24 h, 50 µM in data set [1] (human, hMSC-conditioned media without cells, no exogenous MMP-14, Figure 7 study, 24 h, LC-MS, N = 3 with technical triplicates, read-out: peptide remaining in hMSC conditioned media without exogenous MMP-14) is 85%; in data set [3] (Figure 7 study, recombinant MMP-14 0.5 nM, 24 h, LC-MS, N = 3 with technical triplicates, read-out: peptide remaining in hMSC conditioned media with added MMP‐14), 84%; in data set [3] (Figure 7 study, recombinant MMP-14 0.5 nM, 24 h, LC-MS, N = 3 with technical triplicates, read-out: peptide remaining in hUVEC conditioned media with added MMP‐14), 72%. In data set [1] (setting [6]), the share remaining at 24 h was determined as 86%. The “Fraction of peptide remaining after 24 hours: hUVEC Cells” value in data set [2] (Figure 3C, individually synthesized soluble peptide, 50 µM, media on hUVECs, N = 6) was 0.77. Moreover, in data set [2] (NSC 405 020 10 µM), the “degradation after 24 h, Cells + Inhibitor, cultured with hUVECs” value was “greater than 2%”.
`CC(=O)NCCC(=O)N[C@@H](CCCCN)C(=O)N[C@@H](CC(C)C)C(=O)N[C@H](C(=O)N[C@@H](C)C(=O)N[C@@H](CC(=O)O)C(=O)N1CCC[C@H]1C(=O)N[C@@H](Cc1ccc(O)cc1)C(=O)N[C@@H](C)C(=O)N[C@@H](CO)C(=O)N[C@@H](C)C(=O)N[C@@H](CCC(=O)O)C(=O)NCCC(N)=O)C(C)C` [KLVAD-PY] (Ac-[βAla]KLVADPYASAE[βAla]-NH2): in data set [1] (setting [5]), the share remaining at 24 h came out at 81%. Besides, the share remaining at 24 h, 50 µM in data set [1] (human, hMSC-conditioned media without cells (Media condition), Figure 3C, individually synthesized soluble peptide, 50 µM, hMSC-conditioned media without cells, 24 h, LC-MS, ratio to βFβA6, N = 6, read-out: Fraction of peptide remaining after 24 hours: hMSC Media) stood at 96%.
